In ChEMBL document CHEMBL2434948, “Discovery, synthesis, and characterization of an orally bioavailable, brain penetrant inhibitor of mixed lineage kinase 3” (J Med Chem, 2013):
Active and inactive are the calls of the source. No cut-off for these calls is given here.

Columns and labels:
[1] = target: Tyrosine-protein kinase ABL1 (Homo sapiens, UniProt P00519); test: Inhibition of human wild type ABL1 at 1 uM by qPCR analysis relative to control
[2] = target: T1, Mitogen-activated protein kinase 14 (Homo sapiens, UniProt Q16539); test: Inhibition of human wild type p38alpha at 1 uM by qPCR analysis
T1 sequence (Q16539 whole entry): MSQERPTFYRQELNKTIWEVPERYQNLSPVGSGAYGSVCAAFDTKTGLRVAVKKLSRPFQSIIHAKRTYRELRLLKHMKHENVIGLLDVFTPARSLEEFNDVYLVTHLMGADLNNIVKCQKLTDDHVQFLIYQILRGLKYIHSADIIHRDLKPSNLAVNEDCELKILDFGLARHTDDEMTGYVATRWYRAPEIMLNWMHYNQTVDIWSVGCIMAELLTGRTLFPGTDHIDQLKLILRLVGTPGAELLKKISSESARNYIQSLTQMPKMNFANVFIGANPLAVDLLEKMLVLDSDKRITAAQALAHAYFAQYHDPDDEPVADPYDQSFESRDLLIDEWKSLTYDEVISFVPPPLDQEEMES

[3] = target: TRAF2 and NCK-interacting protein kinase (Homo sapiens) (UniProt Q9UKE5); test: Binding affinity to human wild type TNIK at 1 uM by qPCR analysis
[4] = target: Ribosomal protein S6 kinase alpha-1 (Homo sapiens) (UniProt Q15418); test: Inhibition of human wild type RSK1 at 1 uM by qPCR analysis
[5] = target: T2, Mitogen-activated protein kinase 8 (Homo sapiens, UniProt P45983); test: Inhibition of human wild type JNK1 at 1 uM by qPCR analysis relative to control
T2 sequence (P45983 whole entry): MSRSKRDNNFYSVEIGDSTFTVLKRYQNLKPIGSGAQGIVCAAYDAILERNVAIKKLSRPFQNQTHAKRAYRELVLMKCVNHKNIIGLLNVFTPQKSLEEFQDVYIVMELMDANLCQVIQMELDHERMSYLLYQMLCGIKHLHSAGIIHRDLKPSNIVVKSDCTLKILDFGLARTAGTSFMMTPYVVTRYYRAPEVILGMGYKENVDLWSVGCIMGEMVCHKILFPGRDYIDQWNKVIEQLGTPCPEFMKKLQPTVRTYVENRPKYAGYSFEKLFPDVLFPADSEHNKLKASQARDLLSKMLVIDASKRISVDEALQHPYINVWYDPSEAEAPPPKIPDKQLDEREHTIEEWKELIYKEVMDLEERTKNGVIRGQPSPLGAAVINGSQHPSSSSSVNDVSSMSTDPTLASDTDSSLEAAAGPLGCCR

[6] = target: Mitogen-activated protein kinase 12 (Homo sapiens) (UniProt P53778); test: Inhibition of human wild type p38g at 1 uM by qPCR analysis
[7] = target: Serine/threonine-protein kinase B-raf (Homo sapiens) (UniProt P15056); test: Inhibition of human wild type BRAF at 1 uM by qPCR analysis
[8] = target: Mitogen-activated protein kinase 11 (Homo sapiens) (UniProt Q15759); test: Inhibition of human wild type p38b at 1 uM by qPCR analysis
Chain of Mitogen-activated protein kinase 11 (Homo sapiens) (Q15759 whole entry): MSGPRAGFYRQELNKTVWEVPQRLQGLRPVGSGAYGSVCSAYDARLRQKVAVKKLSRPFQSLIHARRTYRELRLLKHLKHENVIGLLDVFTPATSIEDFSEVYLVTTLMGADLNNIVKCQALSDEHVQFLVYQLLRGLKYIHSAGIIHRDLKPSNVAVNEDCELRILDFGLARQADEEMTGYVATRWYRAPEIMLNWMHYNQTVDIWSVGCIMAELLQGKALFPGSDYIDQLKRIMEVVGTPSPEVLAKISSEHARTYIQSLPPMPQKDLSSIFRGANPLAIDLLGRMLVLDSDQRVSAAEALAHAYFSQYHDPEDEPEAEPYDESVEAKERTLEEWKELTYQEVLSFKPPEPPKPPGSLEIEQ

[9] = target: RAC-gamma serine/threonine-protein kinase (Homo sapiens) (UniProt Q9Y243); test: Inhibition of human wild type AKT3 at 1 uM by qPCR analysis
[10] = target: Serine/threonine-protein kinase Sgk1 (Homo sapiens) (UniProt O00141); test: Inhibition of human wild type SGK1 at 1 uM by qPCR analysis relative to control
[11] = target: Serine/threonine-protein kinase MARK2 (Homo sapiens) (UniProt Q7KZI7); test: Inhibition of human wild type MARK2 at 1 uM by qPCR analysis relative to control
[12] = tested on: Leucine-rich repeat serine/threonine-protein kinase 2 (Homo sapiens), Q5S007 [G2019S]; test: Inhibition of human LRRK2 G2019S mutant at 1 uM by qPCR analysis relative to control
[13] = target: Leucine-rich repeat serine/threonine-protein kinase 2 (Homo sapiens, UniProt Q5S007); test: Inhibition of human wild type LRRK2 at 1 uM by qPCR analysis relative to control
[14] = target: Protein delta homolog 1 (Homo sapiens) (UniProt P80370); test: Inhibition of human wild type DLK at 1 uM by qPCR analysis relative to control
Chain of Protein delta homolog 1 (Homo sapiens) (P80370 whole entry): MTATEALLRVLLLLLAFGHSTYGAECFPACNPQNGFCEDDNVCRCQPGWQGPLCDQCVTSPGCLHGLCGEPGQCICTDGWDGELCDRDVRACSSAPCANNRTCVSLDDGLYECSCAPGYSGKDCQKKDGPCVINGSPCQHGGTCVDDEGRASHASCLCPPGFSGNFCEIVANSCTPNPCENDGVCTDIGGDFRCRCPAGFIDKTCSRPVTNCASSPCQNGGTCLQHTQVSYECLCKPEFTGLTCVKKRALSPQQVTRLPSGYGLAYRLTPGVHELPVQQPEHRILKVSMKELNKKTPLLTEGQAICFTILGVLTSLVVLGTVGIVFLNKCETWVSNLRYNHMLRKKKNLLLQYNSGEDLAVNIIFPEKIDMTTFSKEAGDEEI

[15] = target: ALK tyrosine kinase receptor (Homo sapiens) (UniProt Q9UM73); test: Inhibition of human wild type ALK at 1 uM by qPCR analysis relative to control
[16] = target: SRSF protein kinase 2 (Homo sapiens) (UniProt P78362); test: Inhibition of human wild type SRPK2 at 1 uM by qPCR analysis relative to control
[17] = target: Platelet-derived growth factor receptor beta (Homo sapiens) (UniProt P09619); test: Inhibition of human wild type PDGFRB at 1 uM by qPCR analysis relative to control
[18] = target: Dual specificity protein kinase CLK4 (Homo sapiens) (UniProt Q9HAZ1); test: Inhibition of human wild type CLK4 at 1 uM by qPCR analysis relative to control
[19] = target: Dual specificity protein kinase CLK2 (Homo sapiens) (UniProt P49760); test: Inhibition of human wild type CLK2 at 1 uM by qPCR analysis relative to control
Chain of Dual specificity protein kinase CLK2 (Homo sapiens) (P49760 whole entry, looked up): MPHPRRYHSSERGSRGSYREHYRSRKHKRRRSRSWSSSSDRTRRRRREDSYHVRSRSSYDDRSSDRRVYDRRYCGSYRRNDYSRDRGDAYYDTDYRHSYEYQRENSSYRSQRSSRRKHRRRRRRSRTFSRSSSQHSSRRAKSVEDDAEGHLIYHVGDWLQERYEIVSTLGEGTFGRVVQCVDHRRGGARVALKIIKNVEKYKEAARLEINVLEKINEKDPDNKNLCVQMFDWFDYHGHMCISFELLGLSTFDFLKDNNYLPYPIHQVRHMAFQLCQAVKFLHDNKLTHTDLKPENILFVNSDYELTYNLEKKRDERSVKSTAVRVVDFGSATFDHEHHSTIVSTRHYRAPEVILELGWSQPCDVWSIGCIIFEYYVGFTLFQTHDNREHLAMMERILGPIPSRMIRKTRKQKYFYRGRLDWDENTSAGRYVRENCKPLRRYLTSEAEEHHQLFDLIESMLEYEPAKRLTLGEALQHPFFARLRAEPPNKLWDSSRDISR

[20] = target: Mitogen-activated protein kinase kinase kinase 11 (Mus musculus, UniProt Q80XI6)
[21] = target: T2, Mitogen-activated protein kinase 8
Description: Inhibition of wild type human JNK1 by high throughput [33P]-ATP radiolabeled assay

[22] = target: BDNF/NT-3 growth factors receptor (Homo sapiens, UniProt Q16620)
Description: Inhibition of wild type human TRKB by high throughput ATP-[33P] radiolabeled assay

[23] = target: High affinity nerve growth factor receptor (Homo sapiens, UniProt P04629)
Chain of High affinity nerve growth factor receptor (P04629 whole entry): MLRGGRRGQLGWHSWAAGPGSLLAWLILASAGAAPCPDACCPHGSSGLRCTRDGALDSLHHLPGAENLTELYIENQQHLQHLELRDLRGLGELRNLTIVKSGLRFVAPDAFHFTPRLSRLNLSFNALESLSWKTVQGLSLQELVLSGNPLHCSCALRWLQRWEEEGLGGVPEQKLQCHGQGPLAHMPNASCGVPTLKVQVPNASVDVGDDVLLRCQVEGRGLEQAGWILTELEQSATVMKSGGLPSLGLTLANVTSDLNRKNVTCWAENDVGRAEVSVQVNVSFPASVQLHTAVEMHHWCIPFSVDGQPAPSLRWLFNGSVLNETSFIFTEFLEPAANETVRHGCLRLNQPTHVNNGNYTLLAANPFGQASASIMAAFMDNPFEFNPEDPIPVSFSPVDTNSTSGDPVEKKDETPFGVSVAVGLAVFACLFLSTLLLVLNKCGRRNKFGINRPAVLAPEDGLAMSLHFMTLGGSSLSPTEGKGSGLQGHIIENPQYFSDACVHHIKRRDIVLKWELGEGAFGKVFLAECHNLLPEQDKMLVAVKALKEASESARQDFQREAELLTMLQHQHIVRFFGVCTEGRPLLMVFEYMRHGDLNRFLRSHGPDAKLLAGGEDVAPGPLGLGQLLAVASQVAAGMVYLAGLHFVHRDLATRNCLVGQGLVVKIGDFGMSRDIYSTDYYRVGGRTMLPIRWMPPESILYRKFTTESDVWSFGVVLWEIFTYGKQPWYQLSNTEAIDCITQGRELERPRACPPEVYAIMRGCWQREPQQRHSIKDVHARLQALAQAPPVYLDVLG
Description: Inhibition of wild type human TRKA by high throughput ATP-[33P] radiolabeled assay

[24] = target: Proto-oncogene tyrosine-protein kinase Src (Homo sapiens, UniProt P12931)
Description: Inhibition of wild type human SRC by high throughput ATP-[33P] radiolabeled assay

[25] = target: Tyrosine-protein kinase SYK (Homo sapiens, UniProt P43405)
Description: Inhibition of wild type human SYK by high throughput ATP-[33P] radiolabeled assay

[26] = target: T3, Rho-associated protein kinase 1 (Homo sapiens, UniProt Q13464)
Description: Inhibition of wild type human ROCK1 by high throughput ATP-[33P] radiolabeled assay

[27] = target: T1, Mitogen-activated protein kinase 14
Description: Inhibition of wild type human P38a by high throughput ATP-[33P] radiolabeled assay

[28] = target: Mitogen-activated protein kinase kinase kinase 2 (Homo sapiens, UniProt Q9Y2U5)
Description: Inhibition of wild type human MEKK2 by high throughput ATP-[33P] radiolabeled assay

[29] = target: Tyrosine-protein kinase Lck (Homo sapiens, UniProt P06239)
Description: Inhibition of wild type human LCK by high throughput ATP-[33P] radiolabeled assay

[30] = target: Glycogen synthase kinase-3 beta (Homo sapiens, UniProt P49841)
Description: Inhibition of wild type human GSK3B by high throughput ATP-[33P] radiolabeled assay

[31] = target: Vascular endothelial growth factor receptor 1 (Homo sapiens, UniProt P17948)
Description: Inhibition of wild type human FLT1 by high throughput ATP-[33P] radiolabeled assay

[32] = target: Mitogen-activated protein kinase 1 (Homo sapiens, UniProt P28482)
Chain of Mitogen-activated protein kinase 1 (P28482 whole entry): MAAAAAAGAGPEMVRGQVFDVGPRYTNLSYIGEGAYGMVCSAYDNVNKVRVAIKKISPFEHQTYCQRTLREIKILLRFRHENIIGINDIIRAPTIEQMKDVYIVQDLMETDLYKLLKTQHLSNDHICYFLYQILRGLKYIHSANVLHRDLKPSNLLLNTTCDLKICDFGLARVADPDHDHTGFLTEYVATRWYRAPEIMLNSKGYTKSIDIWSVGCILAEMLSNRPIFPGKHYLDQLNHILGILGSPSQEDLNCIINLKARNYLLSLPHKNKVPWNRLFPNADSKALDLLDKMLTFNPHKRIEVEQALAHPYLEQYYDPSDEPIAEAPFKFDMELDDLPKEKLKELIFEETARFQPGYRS
Description: Inhibition of wild type human ERK2 by high throughput ATP-[33P] radiolabeled assay

[33] = target: Cyclin-dependent kinase 1 (Homo sapiens, UniProt P06493)
Chain of Cyclin-dependent kinase 1 (P06493 whole entry): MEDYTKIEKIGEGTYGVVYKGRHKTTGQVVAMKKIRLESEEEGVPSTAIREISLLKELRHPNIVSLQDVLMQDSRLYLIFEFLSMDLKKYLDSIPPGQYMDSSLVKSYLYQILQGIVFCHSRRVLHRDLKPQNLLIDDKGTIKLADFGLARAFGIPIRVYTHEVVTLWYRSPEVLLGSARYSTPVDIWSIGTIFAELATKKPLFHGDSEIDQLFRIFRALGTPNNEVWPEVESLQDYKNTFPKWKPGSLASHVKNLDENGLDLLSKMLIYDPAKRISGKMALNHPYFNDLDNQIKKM
Description: Inhibition of wild type human CDK1 by high throughput ATP-[33P] radiolabeled assay

Aurora kinase C = Aurora kinase C (Homo sapiens, UniProt Q9UQB9)
Chain of Aurora kinase C (Q9UQB9 whole entry): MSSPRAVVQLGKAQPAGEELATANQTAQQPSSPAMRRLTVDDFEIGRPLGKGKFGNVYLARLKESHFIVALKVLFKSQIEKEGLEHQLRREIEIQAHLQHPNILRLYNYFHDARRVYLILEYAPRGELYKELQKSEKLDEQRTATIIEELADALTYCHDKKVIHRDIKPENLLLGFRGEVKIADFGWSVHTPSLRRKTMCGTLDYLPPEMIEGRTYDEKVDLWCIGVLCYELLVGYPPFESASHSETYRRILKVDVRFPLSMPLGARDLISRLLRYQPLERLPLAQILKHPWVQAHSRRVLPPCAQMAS
Description: Inhibition of wild type human Aurora kinase C kinase by high throughput ATP-[33P] radiolabeled assay

Aurora kinase B = Aurora kinase B (Homo sapiens, UniProt Q96GD4)
Description: Inhibition of wild type human Aurora kinase B by high throughput ATP-[33P] radiolabeled assay

Aurora kinase A = Aurora kinase A (Homo sapiens, UniProt O14965)
Description: Inhibition of wild type human Aurora kinase A by high throughput ATP-[33P] radiolabeled assay

[34] = target: T3, Rho-associated protein kinase 1; conditions: 1 uM
Description: Inhibition of human wild type ROCK1 at 1 uM by qPCR analysis relative to control

Chain of Tyrosine-protein kinase ABL1 (P00519 whole entry): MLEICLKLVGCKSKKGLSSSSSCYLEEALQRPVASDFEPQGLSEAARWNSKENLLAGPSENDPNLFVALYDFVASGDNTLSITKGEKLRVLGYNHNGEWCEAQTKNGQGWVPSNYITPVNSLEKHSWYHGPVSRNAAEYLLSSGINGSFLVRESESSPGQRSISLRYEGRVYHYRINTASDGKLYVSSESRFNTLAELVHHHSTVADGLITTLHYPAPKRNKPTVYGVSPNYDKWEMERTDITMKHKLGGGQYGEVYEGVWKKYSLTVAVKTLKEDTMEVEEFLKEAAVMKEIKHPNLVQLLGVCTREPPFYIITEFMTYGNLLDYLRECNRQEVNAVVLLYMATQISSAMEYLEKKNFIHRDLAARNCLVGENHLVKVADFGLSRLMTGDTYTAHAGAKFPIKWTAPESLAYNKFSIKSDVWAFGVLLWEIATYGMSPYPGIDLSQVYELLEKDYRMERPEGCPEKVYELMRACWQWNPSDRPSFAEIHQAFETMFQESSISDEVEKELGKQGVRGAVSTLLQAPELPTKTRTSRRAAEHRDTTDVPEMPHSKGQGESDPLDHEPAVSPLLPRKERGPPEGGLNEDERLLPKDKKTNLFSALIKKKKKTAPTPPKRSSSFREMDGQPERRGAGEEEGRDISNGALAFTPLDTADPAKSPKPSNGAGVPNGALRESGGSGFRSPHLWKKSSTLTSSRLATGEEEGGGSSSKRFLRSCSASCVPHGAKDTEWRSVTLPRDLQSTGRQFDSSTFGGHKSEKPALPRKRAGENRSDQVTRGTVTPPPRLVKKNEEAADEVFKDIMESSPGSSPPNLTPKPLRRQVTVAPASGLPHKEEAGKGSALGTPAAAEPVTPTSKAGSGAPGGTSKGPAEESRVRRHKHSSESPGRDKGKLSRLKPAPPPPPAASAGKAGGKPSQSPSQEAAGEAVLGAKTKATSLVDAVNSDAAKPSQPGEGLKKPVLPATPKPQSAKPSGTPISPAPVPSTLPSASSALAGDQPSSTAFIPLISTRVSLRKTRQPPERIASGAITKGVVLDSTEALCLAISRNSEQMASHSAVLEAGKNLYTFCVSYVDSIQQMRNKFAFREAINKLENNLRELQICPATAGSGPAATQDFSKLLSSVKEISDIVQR

CN1CCN(Cc2ccc(-c3cnc4[nH]cc(-c5ccc6[nH]ccc6c5)c4c3)cc2)CC1
inhibition [1]: > 90%
inhibition [2]: inactive
inhibition [3]: Active
inhibition [4]: inactive
inhibition [5]: 99%
inhibition [6]: inactive
inhibition [7]: inactive
inhibition [8]: inactive
inhibition [9]: inactive
inhibition [10]: 70%
inhibition [11]: 49%
inhibition [12]: 96%
inhibition [13]: 92%
inhibition [14]: 88%
inhibition [15]: > 90%
inhibition [16]: > 90%
inhibition [17]: > 90%
inhibition [18]: > 90%
inhibition [19]: > 90%
IC50 [20]: 460 nM
IC50 [21]: 3200 nM
IC50 [22]: 217 nM
IC50 [23]: 85 nM
IC50 [24]: 4330 nM
IC50 [25]: 731 nM
IC50 [26]: 1030 nM
IC50 [27]: 12000 nM
IC50 [28]: 661 nM
IC50 [29]: 333 nM
IC50 [30]: > 10000 nM
IC50 [31]: 39 nM
IC50 [32]: 6290 nM
IC50 [33]: 1130 nM
IC50 (Aurora kinase C): 290 nM
IC50 (Aurora kinase B): 123 nM
IC50 (Aurora kinase A): 108 nM
inhibition [34]: > 90%
